Converted amounts (≈) assume the structure as drawn. Read-outs that look alike come from different tables or passages of the source. Marks after values point to notes of the source that are not given here. *1 amine or outer side, *2 acyl side, *3 side chain or, on linkers, in order; H or OH if unused. Where a SMILES comes first, the peptide text is derived from it. [ ]: non-standard residue; d: D form. ξ: configuration not given here. Trp(1-(1,1-Me2-allyl)) = C=CC(C)(C)n1cc(C[C@H](N)C(=O)O)c2ccccc21; NMeGlu(4S-Me) = C[C@@H](C[C@@H](C(=O)[*:2])N(C)[*:1])C(=O)[*:3]; Tyr(3-NO2) = N[CH](Cc1ccc(O)c([N+](=O)[O-])c1)C(=O)O; X1 = CC(C)(C1CO1)n1cc(CC(N[*:1])C(=O)[*:2])c2ccccc21; X2 = CC(CC(C(=O)[*:2])N(C)[*:1])C(=O)O; Gly(E-crotyl) = C/C=C/C[C@H](N)C(=O)O; ξNle(4,5-dehydro) = CC=CCC(N)C(=O)O; NMeL = CN[CH](CC(C)C)C(=O)O
What was measured:
[1] = system: Huvec-12, normal human umbilical vein endothelial cell line; assay: MTT cytotoxicity, normal cell line control; format: cell-based; details: Huvec-12 normal cell line
Method: (§1) Compounds 1–8 were evaluated for cytotoxicity using HeLa, HepG2, A549, CNE2, and MCF7 cell lines using a previously reported MTT method. The L02 and Huvec-12 cell lines were used as normal cell line controls. All these cell lines were obtained from American Type Culture Collection (ATCC) and cultured according to ATCC recommendations. Cell lines were checked for mycoplasma and profiled via short tandem repeat profiling to confirm their identity by the supplier. All experiments were performed in triplicate with doxorubicin and cis-platinum as control agents.

[2] = system: L02, normal human hepatic cell line; assay: MTT cytotoxicity, normal cell line control; format: cell-based
Method: as §1

M. tuberculosis H37Rv = assay: Anti-TB broth dilution MIC; format: cell-based, Mycobacterium tuberculosis
M. smegmatis MC^2 155 = assay: Antimycobacterial broth dilution MIC; format: cell-based, Mycobacterium smegmatis
Method: (§2) To determine the antibacterial activities of these eight compounds (1–8), a preliminary screening of their antibacterial activities against a panel of Gram-positive and Gram-negative bacteria[6]–[8], M. smegmatis MC^2 155 and M. tuberculosis H37Rv, was conducted using a broth dilution method, [59]. Compounds 1–8 were dissolved in dimethylsulfoxide (DMSO) to give 3200 μg mL^−1 stock solutions. The stock solutions were then serially diluted to concentrations of 0.0625–128 μg mL^−1 with MH broth or 7H9 broth (added with 0.2% glycerol, 0.05% Tween 80). DMSO in MH broth or 7H9 broth was used as a negative control, and broth-containing bacteria was used as positive control. All experiments were performed in triplicate with kanamycin and rifampicin as control agents.

Micrococcus luteus SC-1 = assay: Antibacterial broth dilution MIC; format: cell-based
Method: as §2

[3] = system: Staphylococcus aureus ATCC29213; assay: Antibacterial broth dilution MIC; format: cell-based
Method: as §2

[4] = system: Escherichia coli ATCC 25922; assay: Antibacterial broth dilution MIC; format: cell-based
Method: as §2

[5] = system: Acinetobacter baumanii ATCC19606; assay: Antibacterial broth dilution MIC; format: cell-based
Method: as §2

[6] = system: Enterococcus faecalis ATCC29212; assay: Antibacterial broth dilution MIC; format: cell-based
Method: as §2

[7] = system: HepG2, human hepatocellular carcinoma cell line; assay: MTT cytotoxicity; format: cell-based
Method: as §1

[8] = system: CNE2, human nasopharyngeal carcinoma cell line; assay: MTT cytotoxicity; format: cell-based
Method: as §1

[9] = system: MCF7, human breast adenocarcinoma cell line; assay: MTT cytotoxicity; format: cell-based
Method: as §1

[10] = system: HeLa, human cervical carcinoma cell line; assay: MTT cytotoxicity; format: cell-based
Method: as §1

[11] = system: A549, human lung cancer cell line; assay: MTT cytotoxicity; format: cell-based
Method: as §1

[12] = system: human tumor cell lines and normal human cell lines; assay: MTT cytotoxicity, summary over human tumor and normal cell lines; format: cell-based; details: HeLa, HepG2, and A549 cell lines, read-out: IC50 values, range over cell lines
Method: as §1

MRSA shha-01 = assay: microbe, parasite or virus in culture; format: cell-based; details: Staphylococcus aureus
[13] = Mycobacterium tuberculosis, H37RV, broth dilution, triplicate, n = 3
[14] = Mycolicibacterium smegmatis, MC^2155, read-out: MIC
[15] = Acinetobacter baumannii, ATCC19606

Row | SMILES | IC50 ([1]; Homo sapiens, Endothelial cell) [µM] | IC50 ([2]; Homo sapiens) [µM] | MIC (M. tuberculosis H37Rv; [13]) [µM] | MIC (M. smegmatis MC^2 155; [14]) [µM] | MIC (Micrococcus luteus SC-1; SC1) [µM] | MIC [3] [µM] | MIC ([4]; ATCC25922) [µM] | MIC [5, 15] [µM] | MIC [6] [µM] | IC50 ([7]; Homo sapiens) [µM] | IC50 ([8]; Homo sapiens, CNE-2) [µM] | IC50 ([9]; Homo sapiens) [µM] | IC50 ([10]; Homo sapiens) [µM] | IC50 ([11]; Homo sapiens) [µM] | MIC (MRSA shha-01) [µM] | further results
1 | C=CC(C)(C)n1cc(C[C@@H]2NC(=O)[C@H](C/C=C/C)NC(=O)[C@H](CC(C)C)N3C(=O)[C@H](C[C@H](C)C3O)N(C)C(=O)[C@H](C)NC(=O)[C@H](Cc3ccc(O)c([N+](=O)[O-])c3)NC(=O)[C@H](CC(C)C)N(C)C2=O)c2ccccc21 (stereo partly shown) [6/7] | 18.6 | 14.9 | 0.0098 (≈ 0.0101 µg/mL) | 30.7 (≈ 31.5 µg/mL) | > 125 | > 125 | > 125 | 125 (≈ 128 µg/mL) | > 125 | 4.9 | 14.9 | 3.9 | 3.9 | 6.2 | > 125 | fold superior to positive control rifampin (MIC) (M. tuberculosis H37Rv): 30 fold; MIC (M. tuberculosis H37Rv; Mycobacterium tuberculosis, H37RV): ~0.0098 µM (≈ 0.0101 µg/mL); MIC (M. tuberculosis H37Rv; read-out: MIC): 0.0098 µM (≈ 0.0101 µg/mL); IC50 [12]: 3.2 to 6.2 µM
2 | C=CC(C)(C)n1cc(C[C@@H]2NC(=O)[C@H](C/C=C/C)NC(=O)[C@H](CC(C)C)NC(=O)[C@H](C[C@H](C)C(=O)O)N(C)C(=O)[C@H](C)NC(=O)[C@H](Cc3ccc(O)c([N+](=O)[O-])c3)NC(=O)[C@H](CC(C)C)N(C)C2=O)c2ccccc21 [compound 8, ilamycin F] (cyclo(A[NMeGlu(4S-Me)]L[Gly(E-crotyl)][Trp(1-(1,1-Me2-allyl))][NMeL][Tyr(3-NO2)])) | > 50 | > 50 | 1.2 (≈ 1.25 µg/mL) | 30.7 (≈ 32 µg/mL) | > 123 | > 123 | > 123 | 123 (≈ 128 µg/mL) | > 123 | > 50 | > 50 | > 50 | > 50 | > 50 | > 123 | –
3 | CC=CCC1NC(=O)C(CC(C)C)NC(=O)C(CC(C)C(=O)O)N(C)C(=O)C(C)NC(=O)C(Cc2ccc(O)c([N+](=O)[O-])c2)NC(=O)C(CC(C)C)N(C)C(=O)C(Cc2cn(C(C)(C)C3CO3)c3ccccc23)NC1=O (stereo not shown) [compound 5, ilamycin D] (cyclo([X2]L[ξNle(4,5-dehydro)][X1][NMeL][Tyr(3-NO2)]A); configuration not given here) | > 50 | > 50 | 1.2 (≈ 1.27 µg/mL) | 30.3 (≈ 32.1 µg/mL) | > 121 | > 121 | > 121 | 121 (≈ 128 µg/mL) | > 121 | > 50 | > 50 | > 50 | > 50 | > 50 | > 121 | –
4 | CO[C@H]1/C=C/O[C@@]2(C)Oc3c(C)c(O)c4c(O)c(c(/C=N/N5CCN(C)CC5)c(O)c4c3C2=O)NC(=O)/C(C)=C\C=C\[C@H](C)[C@H](O)[C@@H](C)[C@@H](O)[C@@H](C)[C@H](OC(C)=O)[C@@H]1C [Rif, Rifampin, reference compound] | – | – | – | – | – | – | – | – | – | – | – | – | – | – | – | MIC (M. tuberculosis H37Rv; Mycobacterium tuberculosis, H37RV, broth dilution, triplicate, n = 3, read-out: MIC): 0.3 µM (≈ 0.247 µg/mL)
5 | C=CC(C)(C)n1cc(C[C@@H]2NC(=O)[C@H](C/C=C/C)NC(=O)[C@H](CC(C)C)NC(=O)[C@H](CC(C)C)N(C)C(=O)[C@H](C)NC(=O)[C@H](Cc3ccc(O)c([N+](=O)[O-])c3)NC(=O)[C@H](CC(C)C)N(C)C2=O)c2ccccc21 [compound 1, ilamycin B1] (cyclo(A[NMeL]L[Gly(E-crotyl)][Trp(1-(1,1-Me2-allyl))][NMeL][Tyr(3-NO2)])) | > 50 | > 50 | 98.9 (≈ 100 µg/mL) | > 126 | > 126 | > 126 | > 126 | 126 (≈ 128 µg/mL) | > 126 | > 50 | > 50 | > 50 | > 50 | > 50 | > 126 | –
6 | NC[C@H]1O[C@H](O[C@H]2[C@H](O)[C@@H](O[C@H]3O[C@H](CO)[C@@H](O)[C@H](N)[C@H]3O)[C@H](N)C[C@@H]2N)[C@H](O)[C@@H](O)[C@@H]1O [Kanamycin, reference compound] | – | – | – | – | – | 0.85 (≈ 0.412 µg/mL) | – | – | – | – | – | – | – | – | – | MIC (M. smegmatis MC^2 155): 1.7^a μM; MIC (Micrococcus luteus SC-1): 0.85 µM (≈ 0.412 µg/mL); MIC [4]: 1.7 µM (≈ 0.824 µg/mL); MIC ([5]; Acinetobacter baumanii ATCC19606): 3.4 µM (≈ 1.65 µg/mL)
7 | COc1cccc2c1C(=O)c1c(O)c3c(c(O)c1C2=O)C[C@@](O)(C(=O)CO)C[C@@H]3O[C@H]1C[C@H](N)[C@H](O)[C@H](C)O1 [Dox, Doxorubicin, reference compound] | 34.3 | 13 | – | – | – | – | – | – | – | 1.2 | 3.6 | 3.4 | 0.98 | 3.4 | – | –
8 | N.N.[Cl][Pt][Cl] [Cis, Cisplatin, reference compound] | – | – | – | – | – | – | – | – | – | – | – | – | – | – | – | IC50 [1]: 34.5 µM; IC50 [2]: 22.7 µM; IC50 [7]: 2.5 µM; IC50 [8]: 12.9 µM; IC50 [9]: 14.1 µM; IC50 [10]: 5.2 µM; IC50 [11]: 9.3 µM
9 | CC=CCC1NC(=O)C(CC(C)C)N2C(=O)C(CC(C)C2O)N(C)C(=O)C(C)NC(=O)C(Cc2ccc(O)c([N+](=O)[O-])c2)NC(=O)C(CC(C)C)N(C)C(=O)C(Cc2cn(C(C)(C)C3CO3)c3ccccc23)NC1=O (stereo not shown) [3/4] | 33.8 | 7.4 | 9.6 (≈ 10 µg/mL) | 0.12 (≈ 0.125 µg/mL) | > 123 | > 123 | > 123 | 123 (≈ 128 µg/mL) | > 123 | 3.2 | 6.8 | 4.5 | 3.3 | 3.5 | > 123 | IC50 [12]: 3.2 to 6.2 µM
10 | CC=CCC1NC(=O)C(CC(C)C)NC(=O)C(CC(C)C)N(C)C(=O)C(C)NC(=O)C(Cc2ccc(O)c([N+](=O)[O-])c2)NC(=O)C(CC(C)C)N(C)C(=O)C(Cc2cn(C(C)(C)C3CO3)c3ccccc23)NC1=O (stereo not shown) [compound 2, ilamycin B2] (cyclo([ξNle(4,5-dehydro)][X1][NMeL][Tyr(3-NO2)]A[NMeL]L); configuration not given here) | 18.6 | 24.6 | 2.4 (≈ 2.47 µg/mL) | > 124 | > 124 | > 124 | > 124 | 124 (≈ 128 µg/mL) | > 124 | 8.9 | 24.5 | 17.4 | 7.1 | 13.8 | > 124 | –

From paper PMC5577134 (Nature Communications, 2017)
